{"source": "patent US8461119B2", "about": "“Agents that modulate Eph receptor activity” (The Burnham Institute, priority 2002, dated 2013)", "key": {"EphA receptors": {"system": "EphA receptors", "test": "Immobilized biotinylated synthetic peptide capturing Eph receptor Fc (ELISA)", "type": "binding", "conditions": "Fc fusion proteins of EphA receptors", "source_text": "(§3) Bound Eph receptors were detected with anti-human Fc antibody conjugated to alkaline phosphatase (AP) (Promega, Madison, Wis.). […] Substrates were 2,2′-azino-bis(3-ethylbenzthiazoline-6-sulfonic acid) for horseradish peroxidase and p-nitrophenyl phosphate for AP."}, "EphA2 [1]": {"target": "T1, EphA2 (Mus musculus, UniProt Q03145)", "T1 construct": "purchased R&D Systems", "test": "Peptide competition with phage clones on immobilized EphA2 Fc", "type": "binding", "procedure": "A histidine-tagged mouse EphA2 Fc fusion protein (R&D Systems, Minneapolis, Minn.) was incubated overnight at 4° C. in nickel-nitrilotriacetic acid (Ni-NTA)-coated ELISA plates at concentrations of 1-10 μg/ml in Tris-buffered saline (TBS) (150 mM NaCl, 50 mM Tris-HCl, pH 7.5). Wells were blocked with 0.5% bovine serum albumin (BSA) in TBS, and rinsed with binding buffer (TBS, 1 mM CaCl2, 0.1% Tween 20).\nFor peptide competition assays with phage clones, Ni-NTA microtiter wells coated with EphA2 Fc were incubated for 1 hour at room temperature with phage clones diluted between 1:600 and 1:9,000 in binding buffer (100 μl/well). Unbound phage were washed away and competing peptides were added for 1 hour. Alternatively, peptides and phage were co-incubated together."}, "EphA4 [2]": {"target": "T2, EphA4 (Homo sapiens, UniProt P54764)", "T2 construct": "immobilized EphA4 receptor extracellular domain fused to a human Fc region", "T2 sequence (P54764 20-547 limits assumed, species assumed)": "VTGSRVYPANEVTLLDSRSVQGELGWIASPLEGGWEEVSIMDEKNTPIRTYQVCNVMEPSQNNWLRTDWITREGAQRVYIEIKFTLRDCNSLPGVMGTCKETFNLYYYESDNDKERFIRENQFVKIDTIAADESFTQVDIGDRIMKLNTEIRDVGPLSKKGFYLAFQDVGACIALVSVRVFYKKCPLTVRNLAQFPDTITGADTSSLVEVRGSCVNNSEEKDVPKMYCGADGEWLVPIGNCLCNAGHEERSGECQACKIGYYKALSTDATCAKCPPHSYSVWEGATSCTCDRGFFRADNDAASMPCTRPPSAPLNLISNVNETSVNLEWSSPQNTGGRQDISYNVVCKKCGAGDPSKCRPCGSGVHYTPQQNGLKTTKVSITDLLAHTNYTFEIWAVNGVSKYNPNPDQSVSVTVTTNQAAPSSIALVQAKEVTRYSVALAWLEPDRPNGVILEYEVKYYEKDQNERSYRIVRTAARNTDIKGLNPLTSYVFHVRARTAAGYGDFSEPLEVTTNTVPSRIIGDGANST", "test": "Ephrin-AP binding to Eph receptor-coated wells in presence of peptide", "conditions": "for Antagonism of ephrin-A5 binding to EphA4: ephrin-A5 AP", "procedure": "Diluted cell culture supernatants containing ephrin-A5-AP and ephrin-A6-AP were co-incubated with peptides in microtiter wells coated with EphA2 Fc or EphA4 Fc. Ephrins remaining bound after washing were detected by measuring AP activity."}, "EphA2 [3]": {"target": "T1, EphA2", "test": "Immobilized biotinylated synthetic peptide capturing Eph receptor Fc (ELISA)", "type": "binding", "conditions": "biotinylated peptide on streptavidin-coated wells", "source_text": "as §3"}, "MAP kinase": {"system": "MAP kinase", "test": "MAP kinase phosphorylation in HUVE cells (immunoblot)", "type": "cell-based, human", "excerpt": "Cell lysates were used to immunoprecipitate EphA2 as described above or probed by immunoblotting with anti-phospho-p44/p42 MAPK antibody (Cell Signaling Technology, Beverly, Mass.) followed by an anti-mouse IgG peroxidase-conjugated antibody (Arnersham) and re-probed with an anti-ERK2 antibody (Santa Cruz Biotechnology, Santa Cruz, Calif.) followed by a secondary anti-rabbit IgG peroxidase-conjugated antibody (Amersham). Erk2 (p42 MAP kinase) is the major phosphorylated form present. EphA2 was immunoprecipitated (IP) and probed by immunoblotting with anti-phosphotyrosine (PTyr) or anti-EphA2 antibodies."}, "EphA2 [4]": {"target": "T1, EphA2", "test": "Ephrin-AP binding to Eph receptor-coated wells in presence of peptide", "conditions": "ephrin-A5-AP, ephrin-A6-AP", "procedure": "Ephrin binding to Eph receptor-coated plates was quantified using alkaline phosphatase (AP) fusion proteins of ephrin-A5 and ephrin-A6 (plasmids encoding these AP-fusions are described above). Diluted cell culture supernatants containing ephrin-A5-AP and ephrin-A6-AP were co-incubated with peptides in microtiter wells coated with EphA2 Fc or EphA4 Fc. Ephrins remaining bound after washing were detected by measuring AP activity."}, "EphB receptors": {"system": "EphB receptors", "test": "Immobilized biotinylated synthetic peptide capturing Eph receptor Fc (ELISA)", "type": "binding", "source_text": "as §3"}, "EphB4 [5]": {"system": "EphB4", "test": "Binding specificity of phage clones on Eph receptor-coated plates", "conditions": "phage clones displaying the peptides", "source_text": "(§4) Phage binding to Eph receptor-coated plates was quantified using an anti-phage antibody conjugated to horseradish peroxidase (M13 phage detection kit, Amersham Pharmacia Biotech., Piscataway, N.J.)."}, "EphB4 [6]": {"system": "EphB4", "test": "Binding specificity of synthetic peptides", "conditions": "immobilized synthetic peptide", "source_text": "as §3"}, "EphA7": {"system": "EphA7", "test": "Binding selectivity of phage clones isolated on EphA7", "protocol": "(§1) Alternatively, peptides and phage were co-incubated together.\n(§2) In this example additional phage panning experiments were performed to identify peptides that bind to EphA5 and EphA7 (FIG. 18A). EphA5 and EphA7 are two EphA receptors that are closely related to EphA4 but are differentially expressed in the developing and adult nervous system (Ellis, J. et al. 1995 Mechanisms of Development 52:319-341; Mori, T. et al 1995 Brain Res Mol Brain Res 34:154-160; Olivieri, G. & Miescher, G. C. 1999 J Histochem Cytochem 47:855-861; Zhang, J. H. et al 1997 Brain Res Mol Brain Res 47:202-214). Three different peptide sequences that bind each receptor were identified."}, "EphA4 [7]": {"target": "T3, EphA4 (Mus musculus, UniProt Q03137)", "T3 construct": "antagonize ephrin-A3-induced tyrosine phosphorylation of endogenous EphA4; from tissue; host or cells: mouse hippocampal slices", "T3 sequence (Q03137 20-986)": "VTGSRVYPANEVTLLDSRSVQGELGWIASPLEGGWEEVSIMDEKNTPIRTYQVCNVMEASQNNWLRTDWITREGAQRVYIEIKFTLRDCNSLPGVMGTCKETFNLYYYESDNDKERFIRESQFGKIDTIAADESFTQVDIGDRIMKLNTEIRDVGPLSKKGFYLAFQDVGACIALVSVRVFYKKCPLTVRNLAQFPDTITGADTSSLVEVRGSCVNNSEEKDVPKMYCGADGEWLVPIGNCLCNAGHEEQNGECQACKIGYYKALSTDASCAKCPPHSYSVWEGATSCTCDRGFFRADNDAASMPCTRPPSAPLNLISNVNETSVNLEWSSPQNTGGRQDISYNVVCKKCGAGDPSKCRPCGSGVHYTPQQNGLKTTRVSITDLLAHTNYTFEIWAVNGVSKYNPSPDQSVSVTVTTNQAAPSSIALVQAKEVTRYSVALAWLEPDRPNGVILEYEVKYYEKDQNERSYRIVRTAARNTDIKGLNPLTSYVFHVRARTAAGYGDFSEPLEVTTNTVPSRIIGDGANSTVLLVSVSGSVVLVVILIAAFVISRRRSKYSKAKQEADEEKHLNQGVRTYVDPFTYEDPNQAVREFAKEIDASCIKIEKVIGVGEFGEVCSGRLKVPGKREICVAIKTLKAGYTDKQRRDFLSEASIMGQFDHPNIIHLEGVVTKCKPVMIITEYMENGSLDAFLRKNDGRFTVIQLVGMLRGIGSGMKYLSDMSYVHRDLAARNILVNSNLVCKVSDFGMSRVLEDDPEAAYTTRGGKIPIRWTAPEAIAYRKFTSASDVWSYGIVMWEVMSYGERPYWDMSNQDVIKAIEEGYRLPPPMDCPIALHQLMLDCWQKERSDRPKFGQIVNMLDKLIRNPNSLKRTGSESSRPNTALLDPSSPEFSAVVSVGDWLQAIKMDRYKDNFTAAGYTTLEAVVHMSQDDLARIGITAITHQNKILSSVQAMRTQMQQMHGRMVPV", "test": "Ephrin-A3 Fc induced EphA4 tyrosine phosphorylation in hippocampal slices", "type": "cell-based", "conditions": "micromolar peptide"}, "neural crest cells": {"system": "neural crest cells", "test": "Neural crest cell migration assay in chick trunk explants", "type": "cell-based", "conditions": "24 hours, 13 μM KYL peptide or 10 μg/ml EphA4-Fc", "protocol": "In this example to address whether the EphA4-binding peptides can inhibit endogenous ephrin-EphA4 physiological function, a neural crest cell migration assay (McLennan, R. & Krull, C. E. 2002 Gene Expr 10:295-305) was utilized. […] The migration of neural crest cells was determined by staining for HNK-1 for neural crest cells and ephrin-B1 to label the caudal sclerotome. […] Neural crest cells migrated properly into the rostral sclerotome in explants treated with control Fc."}, "EphA4 [8]": {"target": "T2, EphA4", "test": "Binding selectivity of phage clones isolated on EphA4", "conditions": "compared to other EphA or EphB4 receptors", "source_text": "as §4\nIn this example phage display was used to identify peptides that bind to an EphA4 receptor. An M13 phage library displaying random 12-mer peptides was panned on the immobilized EphA4 receptor extracellular domain fused to a human Fc region (FIG. 12A). The phage clones remaining bound to EphA4 were eluted with a low pH solution and amplified."}, "EphA4 [9]": {"target": "T2, EphA4", "test": "Binding specificity of synthetic peptides", "conditions": "compared to other EphA and EphB receptors", "source_text": "as §3"}, "EphA5": {"system": "EphA5", "test": "Binding selectivity of phage clones isolated on EphA5", "protocol": "as §1, §2"}}, "note": "“Also recorded” adds a separate entry of the source. Where two headings read alike, the source gives them in different places."}
{"compound": "CSCC[C@H](NC(=O)[C@H](CCSC)NC(=O)[C@@H]1CCCN1C(=O)[C@@H](NC(=O)[C@H](CO)NC(=O)[C@H](CC(=O)O)NC(=O)[C@@H]1CCCN1C(=O)[C@H](Cc1ccc(O)cc1)NC(=O)[C@H](C)NC(=O)[C@H](CO)NC(=O)[C@@H](N)Cc1ccc(O)cc1)C(C)C)C(=O)N[C@@H](CO)C(=O)O", "note": "[YSA]", "values": [{"measurement": "Binding of immobilized synthetic peptide to EphA receptors (other than or including EphA2)", "setting": "EphA receptors", "result": "not to other EphA receptors"}, {"measurement": "Competition of synthetic peptide with phage binding to immobilized EphA2", "setting": "EphA2 [1]", "result": "competes with SWL phage"}, {"measurement": "Inhibition of A-ephrin binding to immobilized EphA4 by EphA2-binding peptides", "setting": "EphA4 [2]; ephrin-A5-AP, ephrin-A6-AP", "result": "not EphA4"}, {"measurement": "Binding of immobilized synthetic peptide to EphA2 Fc", "setting": "EphA2 [3]", "result": "bound to EphA2"}, {"measurement": "MAP kinase activation", "setting": "MAP kinase", "result": "activates a previously described Eph2A signaling pathway that suppresses MAP kinase activation"}, {"measurement": "Inhibition of ephrin binding to immobilized EphA2", "setting": "EphA2 [4]", "result": "inhibit, in a concentration dependent manner"}, {"measurement": "Binding of synthetic peptide to receptors of the EphB family", "setting": "EphB receptors", "result": "lack the ability to bind to receptors of the EphB family"}]}
{"compound": "A3 peptide: Twelve-mer synthetic peptide corresponding to the G-H loop of ephrin-A3", "values": [{"measurement": "Binding of immobilized synthetic peptide to EphA receptors (other than or including EphA2)", "setting": "EphA receptors", "result": "bind promiscuously to all EphA receptors"}, {"measurement": "Competition of synthetic peptide with phage binding to immobilized EphA2", "setting": "EphA2 [1]", "result": "did not inhibit phage binding"}, {"measurement": "Binding of immobilized synthetic peptide to EphA2 Fc", "setting": "EphA2 [3]", "result": "bind EphA2, albeit more weakly than the YSA peptide"}, {"measurement": "Inhibition of ephrin binding to immobilized EphA2", "setting": "EphA2 [4]", "result": "did not compete with ephrin-A5 for binding to EphA2"}]}
{"compound": "A5 peptide: Twelve-mer synthetic peptide corresponding to the A-A′ β-strand of ephrin-A5", "values": [{"measurement": "Binding of immobilized synthetic peptide to EphA receptors (other than or including EphA2)", "setting": "EphA receptors", "result": "bind promiscuously to all EphA receptors"}, {"measurement": "Competition of synthetic peptide with phage binding to immobilized EphA2", "setting": "EphA2 [1]", "result": "enhanced both phage and ephrin-A5 binding to EphA2"}, {"measurement": "Binding of immobilized synthetic peptide to EphA2 Fc", "setting": "EphA2 [3]", "result": "bind EphA2, albeit more weakly than the YSA peptide"}, {"measurement": "Inhibition of ephrin binding to immobilized EphA2", "setting": "EphA2 [4]", "result": "enhanced both phage and ephrin-A5 binding to EphA2"}]}
{"compound": "DALNDWLLFRPW (DAL peptide)", "values": [{"measurement": "Binding of phage clones to EphB4 Fc", "setting": "EphB4 [5]", "result": "bound to EphB4 Fc"}, {"measurement": "EphB4 bound compared to other EphB family receptors", "setting": "EphB4 [6]", "result": "four-fold"}]}
{"compound": "IPWTQHMAMSPM (IPW peptide)", "values": [{"measurement": "Binding of phage clones to EphB4 Fc", "setting": "EphB4 [5]", "result": "bound to EphB4 Fc"}]}
{"compound": "KHLPFYPHPTSP (EphA7-binding peptide)", "values": [{"measurement": "Binding to further EphA receptors of EphA7-binding peptides", "setting": "EphA7", "result": "also binds to EphA3, EphA5, and EphA6"}]}
{"compound": "KYLPYWPVLSSL (KYL peptide)", "values": [{"measurement": "Ephrin-A3-induced tyrosine phosphorylation (activation) of endogenous EphA4", "setting": "EphA4 [7]", "result": "blocked EphA4 tyrosine phosphorylation at lower concentrations than the APY and VTM peptides; also recorded: antagonize ephrin-A3 induced activation of endogenous EphA4"}, {"measurement": "Antagonism of ephrin-A5 binding to EphA4", "setting": "EphA4 [2]", "result": "antagonize ephrin-A5 binding to EphA4 in a concentration-dependent manner"}, {"measurement": "Peptide concentration that almost completely inhibited ephrin binding", "setting": "EphA4 [2]; ephrin-A5 AP binding to EphA4", "result": 1, "unit": "µM"}, {"measurement": "Selectivity of block of ephrin-A5 AP binding to EphA4 compared to other EphA receptors", "setting": "EphA4 [2]; peptide 50 μM", "result": "preferentially"}, {"measurement": "Migration of neural crest cells", "setting": "neural crest cells", "result": "ectopic migration of neural crest cells into the caudal half-sclerotome"}, {"measurement": "Binding preference of phage clones for EphA4", "setting": "EphA4 [8]", "result": "preferential binding to EphA4"}, {"measurement": "Selectivity of synthetic peptide for EphA4", "setting": "EphA4 [9]", "result": "exhibited some binding to other EphA and EphB receptors"}]}
{"compound": "NHWLDTLFPMHM (EphA4-binding peptide)", "values": [{"measurement": "Binding preference of phage clones for EphA4", "setting": "EphA4 [8]", "result": "preferential binding to EphA4"}]}
{"compound": "SGHQLLLNKMPN (SGH peptide)", "values": [{"measurement": "Binding of phage clones to EphB4 Fc", "setting": "EphB4 [5]", "result": "bound to EphB4 Fc"}]}
{"compound": "SLRDTYMRAKVL (SLR peptide)", "values": [{"measurement": "Binding selectivity of peptides isolated on EphA5", "setting": "EphA5", "result": "selective binding to this receptor"}, {"measurement": "Binding selectivity of peptides isolated on EphA5", "setting": "EphA5; listed as SLR", "result": "selectively bind to EphA5"}]}
{"compound": "SVSVGMKPSPRP (SVS peptide)", "values": [{"measurement": "Binding to further EphA receptors of EphA7-binding peptides", "setting": "EphA7", "result": "also binds to EphA3 and EphA6"}]}
{"compound": "VADRYAVYWNSSNPR (extended A5 peptide)", "values": [{"measurement": "Binding of immobilized synthetic peptide to EphA2 Fc", "setting": "EphA2 [3]", "result": "exhibits a similar weak binding"}]}
{"compound": "VTMEAINLAFPG (VTM peptide)", "values": [{"measurement": "Ephrin-A3-induced tyrosine phosphorylation (activation) of endogenous EphA4", "setting": "EphA4 [7]", "result": "antagonize ephrin-A3 induced activation of endogenous EphA4"}, {"measurement": "Antagonism of ephrin-A5 binding to EphA4", "setting": "EphA4 [2]", "result": "antagonize ephrin-A5 binding to EphA4 in a concentration-dependent manner"}, {"measurement": "Mode of inhibition of ephrin binding", "setting": "EphA4 [2]; inhibition curves at different ephrin concentrations", "result": "competitively inhibits ephrin binding"}, {"measurement": "Binding preference of phage clones for EphA4", "setting": "EphA4 [8]", "result": "preferential binding to EphA4"}]}
{"compound": "WASHAPYWPHPP (EphA7-binding peptide)", "values": [{"measurement": "Binding to further EphA receptors of EphA7-binding peptides", "setting": "EphA7", "result": "also binds to EphA3"}]}
{"compound": "WDCNGPYCHWLG (WDC peptide)", "values": [{"measurement": "Binding selectivity of peptides isolated on EphA5", "setting": "EphA5", "result": "selective binding to this receptor"}, {"measurement": "Binding selectivity of peptides isolated on EphA5", "setting": "EphA5; listed as WDC", "result": "selectively bind to EphA5"}]}
{"compound": "WTFPVLWDDKHP (WTF peptide)", "values": [{"measurement": "Binding selectivity of peptides isolated on EphA5", "setting": "EphA5", "result": "also binds to EphA6"}, {"measurement": "Binding selectivity of peptides isolated on EphA5", "setting": "EphA5; listed as WTF", "result": "binds to both EphA5 and EphA6"}]}
